This note sets out measurements from patent publication EP4410284A1, “COMPOUND AND METHOD FOR THE TREATMENT OF ZELLWEGER SPECTRUM DISORDER” (Apteeus, priority 2023, dated 2024).

Where two headings read alike, the source gives them in different places.

One series has as its system PEX607. Kind of series: Catalase import immunofluorescence (% importing cells). It is filed as cell-based, human. As to conditions: PEX607 (PEX6); for Importing cells (%): at the lower dose leading to the maximum effect (see E18). As to the method: (§1) Primary fibroblasts were seeded at 500-700 cells per well in 384-well plates and grown at 37°C overnight. Cells were treated with test compounds or 0.1% DMSO for 3 days. After 3 days and a wash with PBS, cells were fixed with 4% paraformaldehyde (Electron Microscopy Sciences) in PBS for 20 minutes. After 3 washes with PBS, the cells were permeabilized and blocked with 0.3% Triton X-100, 1% BSA in PBS for 30 minutes at room temperature followed by 3 washes with 1% BSA in PBS. The cells were incubated with a rabbit Catalase polyclonal antibody (#12980 Cell signaling) overnight at 4°C. Following 3 washes with PBS containing 0.1% Tween-20, the cells were incubated for 1 h at room temperature with a conjugated goat anti-rabbit secondary antibody Alexa Fluor 647 (Ab150083-Abcam). The cells were then washed 3 times with PBS and Hoechst 33342 (H3570-ThermoFisher Scientific) + HCS Cellmask Blue (H32720 - ThermoFisher Scientific) staining was performed at 0.1 µg/ml and 0.4 µg/mL respectively for 30 minutes at room temperature. The cells were finally washed 3 times with PBS and fluorescent images were acquired using the INCell Analyzer 6000 imaging platform (GE Healthcare Life Sciences).
(§2) Images analysis was done using Columbus analysis software (PerkinElmer). DAPI channel was used to find nuclei (Hoechst 33342) and cytoplasm (HCS CellMask Blue) and border objects were removed. Cy5 channel (AlexaFluor 647) was used to find spots corresponding to peroxisomes which correctly import catalase. Cells were classified as importing or non-importing cells using a linear classifier method after training with images of wells containing Healthy cells and PEX1 deficient cells. The number of importing or non-importing cells was calculated. Finally, results were expressed as % of importing cells.
(§3) Among the HDAC inhibitors of example 2, 4 were tested on other cells which are PEX1, PEX6 or PEX26 deficient.

A further series relates to GM11335. The series is described as above. In kind it is cell-based, human. As to conditions: GM11335 (PEX26); for Importing cells (%): at the lower dose leading to the maximum effect (see E20). As to the method: as §1, §2, §3
Another series relates to GM 17398. The description is as above. In kind it is cell-based, human. Particulars: GM 17398 (PEX26 deficient); for Importing cells (%): at the lower dose leading to the maximum effect (see E24). As to the method: as §1, §2, §3
The next series relates to PEX506. The series is described as above. It is filed as cell-based, human. As to conditions: PEX506 (PEX6); for Importing cells (%): at the lower dose leading to the maximum effect (see E16). The procedure:
as §1, §2, §3

For another series, the system named is PEX304. Described as above. As to conditions: PEX304 (PEX1); for Importing cells (%): at the lower dose leading to the maximum effect (see E14). It is filed as cell-based, human. The procedure: as §1, §2, §3
For the next series, the system named is GM 16865. The series is described as above. It is filed as cell-based, human. As to conditions: GM 16865 (PEX26); for Importing cells (%): at the lower dose leading to the maximum effect (see E22). As to the method: as §1, §2, §3
Series [1] concerns GM16513 cells. In kind it is cell-based. Particulars: 3 days, PI positive cells (dead cells).
Protocol: (§4) Images were acquired using the EnSight multimode plate reader (PerkinElmer) and analysis was done using Columbus analysis software (PerkinElmer). […] Then the total number of cells and the % of dead cells was calculated.
(§5) All HDAC inhibitors were tested at 1.3 and 10 µM for 3 days on GM16513 and PEX405 cells.
The test system of series [2] is GM16513 cells. Kind of series: Catalase import immunofluorescence, high-content screening (% importing cells). In kind it is cell-based, human. Particulars: GM16513 cells, 3 days; for EC50 / Emax: Homo sapiens, 72 h, dose response with 6 concentrations; for EC50: read-out: EC50; for Emax: read-out: Max Efficacy (% Importing cells).
Protocol: Images analysis was done using Columbus analysis software (PerkinElmer). DAPI channel was used to find nuclei (Hoechst 33342) and cytoplasm (HCS CellMask Blue) and border objects were removed. Cy5 channel (AlexaFluor 647) was used to find spots corresponding to peroxisomes which correctly import catalase. […] The number of importing or non-importing cells was calculated. Finally, results were expressed as % of importing cells.
(§6) The cytotoxicity was assessed in parallel using a double nucleus staining with Hoechst 33342 and Propidium Iodide (PI).
The EC50 and maximum efficacy of these inhibitors were determined.
In series [3] the test system is PEX405 cells. It is filed as cell-based. Particulars: 3 days, PI positive cells (dead cells).
Protocol: as §4, §5
Series [4] concerns PEX405 cells. Kind of series: Catalase import immunofluorescence, high-content screening (% importing cells). As to conditions: for Concentration (lower dose leading to the maximum effect) / Importing cells (%): PEX405 (PEX1); for Importing cells (%): at the lower dose leading to the maximum effect (see E12); for % Importing cells: PEX405 cells, 3 days. In kind it is cell-based, human.
Protocol: as §6

Usually EC50 stands for the concentration needed to bring the measured effect to its halfway point. As to `O=C(CCCCCCNC(=O)c1cnc(N(c2ccccc2)c2ccccc2)nc1)NO` [Ricolinostat], the “Concentration (lower dose leading to the maximum effect)” value in the series on PEX607 is reported as 3 µM; in the series with GM11335, 10 µM; in the series with GM 17398, 30 µM; with PEX506 it was 0.33 µM; in the series with PEX304, 10 µM; in the series on GM 16865, 10 µM. Moreover, the “Concentration (lower dose leading to the maximum effect)” value with PEX405 cells [4] is 10 µM. Besides, the “Importing cells (%)” value in the series on PEX607 worked out at 40%; with GM11335, 18%; in the series on GM 17398, 0%; in the series with PEX506, 55%; in the series with PEX304, 5%; in the series on GM 16865, 20%. Moreover, the “Importing cells (%)” value with PEX405 cells [4] turned out to be 27%. Besides, the “% PI+ cells” value in the series with GM16513 cells [1] (1.3 µM) was determined as 2%; in the series with GM16513 cells [1] (10 µM) it was 5%; with PEX405 cells [3] (1.3 µM), 1%; in the series on PEX405 cells [3] (10 µM) it was 1%. The “% Importing cells” value with GM16513 cells [2] (1.3 µM) worked out at 30%; in the series with GM16513 cells [2] (10 µM), 89%; in the series with PEX405 cells [4] (1.3 µM) it was 4%; in the series with PEX405 cells [4] (10 µM) it was 35%. Also, the 50% effective concentration (EC50) in the series on GM16513 cells [2] was determined as 2760 nM. Besides, the Emax in the series with GM16513 cells [2] stood at 96%.

Regarding `CC(/C=C/C(=O)NO)=C\[C@@H](C)C(=O)c1ccc(N(C)C)cc1` [Trichostatin A], the “% PI+ cells” value was 18% with GM16513 cells [1] (1.3 µM), 30% with GM16513 cells [1] (10 µM), 24% in the series with PEX405 cells [3] (1.3 µM) and 49% in the series with PEX405 cells [3] (10 µM). For the same compound, the “% Importing cells” value stood at 90% with GM16513 cells [2] (1.3 µM), 76% in the series on GM16513 cells [2] (10 µM), 28% in the series on PEX405 cells [4] (1.3 µM) and 0% in the series on PEX405 cells [4] (10 µM).

In the case of `O=C(CCCCCCC(=O)Nc1ccc([C@H]2O[C@@H](CSc3nc(-c4ccccc4)c(-c4ccccc4)o3)C[C@@H](c3ccc(CO)cc3)O2)cc1)NO` [Tubacin], the “% PI+ cells” value in the series with GM16513 cells [1] (10 µM) and in the series with PEX405 cells [3] (10 µM) was 4% throughout. In addition, the “% Importing cells” value in the series on GM16513 cells [2] (10 µM) stood at 39%; with PEX405 cells [4] (10 µM), 5%.

For `CN1CCc2c(c3ccccc3n2Cc2ccc(C(=O)NO)cc2)C1.Cl` [Tubastatin A (Hydrochloride), Tubastatin A], the “% PI+ cells” value in the series with GM16513 cells [1] (1.3 µM) is given as 2%; with GM16513 cells [1] (10 µM), 1%; in the series with PEX405 cells [3] (1.3 µM) it was 1%; with PEX405 cells [3] (10 µM), 1%. Besides, the “% Importing cells” value in the series on GM16513 cells [2] (1.3 µM) stood at 12%; with GM16513 cells [2] (10 µM), 37%; with PEX405 cells [4] (1.3 µM), 3%; with PEX405 cells [4] (10 µM) it was 6%.

As for `CN1CCc2c(c3ccccc3n2Cc2ccc(C(=O)NO)cc2)C1` [Tubastatin A], the “% PI+ cells” value in the series with GM16513 cells [1] (1.3 µM), with GM16513 cells [1] (10 µM), with PEX405 cells [3] (1.3 µM) and in the series with PEX405 cells [3] (10 µM) was 1% throughout. Also, the “% Importing cells” value in the series on GM16513 cells [2] (1.3 µM) amounted to 26%; with GM16513 cells [2] (10 µM), 32%; with PEX405 cells [4] (1.3 µM), 5%; with PEX405 cells [4] (10 µM), 6%.

As for `Nc1cc(F)ccc1NC(=O)c1ccc(CNC(=O)/C=C/c2cccnc2)cc1` [Tucidinostat], the “% PI+ cells” value in the series with GM16513 cells [1] (1.3 µM) is given as 1%; in the series with GM16513 cells [1] (10 µM) it was 4%; in the series on PEX405 cells [3] (1.3 µM), 0%; in the series with PEX405 cells [3] (10 µM), 2%. Further, the “% Importing cells” value in the series on GM16513 cells [2] (1.3 µM) is reported as 43%; in the series on GM16513 cells [2] (10 µM), 64%; in the series on PEX405 cells [4] (1.3 µM), 14%; in the series with PEX405 cells [4] (10 µM), 28%. Also, in the series on GM16513 cells [2], the 50% effective concentration (EC50) came out at 1500 nM. Also, in the series with GM16513 cells [2], the Emax turned out to be 70%.

`CCCCNNC(=O)c1ccc(Br)cc1` [UF010]: the “% PI+ cells” value in the series with GM16513 cells [1] (1.3 µM) came out at 1%; with GM16513 cells [1] (10 µM), 1%; with PEX405 cells [3] (1.3 µM) it was 0%; with PEX405 cells [3] (10 µM), 1%. Also, the “% Importing cells” value in the series on GM16513 cells [2] (1.3 µM) came out at 12%; with GM16513 cells [2] (10 µM), 16%; in the series with PEX405 cells [4] (1.3 µM), 3%; in the series with PEX405 cells [4] (10 µM), 2%.

On to `O=C(CCCCCCC(=O)Nc1ccccc1)NO` [Vorinostat], for which the “Concentration (lower dose leading to the maximum effect)” value in the series with PEX607 came to 3 µM; in the series with GM11335, 3 µM; in the series on GM 17398, 30 µM; in the series with PEX506 it was 0.33 µM; in the series with PEX304, 3 µM; with GM 16865 it was 3 µM. Besides, the “Concentration (lower dose leading to the maximum effect)” value in the series on PEX405 cells [4] is given as 10 µM. For the same compound, the “Importing cells (%)” value stood at 48% with PEX607; 25% with GM11335; 2% with GM 17398; 57% in the series on PEX506; 8% in the series with PEX304; 27% in the series with GM 16865. The “Importing cells (%)” value in the series on PEX405 cells [4] turned out to be 16%. Further, the “% PI+ cells” value with GM16513 cells [1] (1.3 µM) came to 2%; with GM16513 cells [1] (10 µM), 9%; in the series with PEX405 cells [3] (1.3 µM), 1%; in the series with PEX405 cells [3] (10 µM), 9%. The “% Importing cells” value with GM16513 cells [2] (1.3 µM) worked out at 35%; in the series with GM16513 cells [2] (10 µM) it was 96%; in the series on PEX405 cells [4] (1.3 µM) it was 13%; in the series on PEX405 cells [4] (10 µM) it was 16%. Also, the Emax with GM16513 cells [2] is 90%.

Regarding ACY-1083, the “% PI+ cells” value in the series with GM16513 cells [1] (1.3 µM) stood at 2%; in the series on GM16513 cells [1] (10 µM) it was 1%; with PEX405 cells [3] (1.3 µM), 1%; with PEX405 cells [3] (10 µM) it was 1%. Besides, the “% Importing cells” value in the series on GM16513 cells [2] (1.3 µM) was 17%; with GM16513 cells [2] (10 µM) it was 42%; in the series with PEX405 cells [4] (1.3 µM), 5%; with PEX405 cells [4] (10 µM), 4%.

As for HDACs/mTOR Inhibitor 1, the “% PI+ cells” value stood at 14% in the series with GM16513 cells [1] (1.3 µM), 24% in the series with GM16513 cells [1] (10 µM), 8% in the series on PEX405 cells [3] (1.3 µM) and 40% with PEX405 cells [3] (10 µM). The “% Importing cells” value is recorded as 77% with GM16513 cells [2] (1.3 µM), 96% in the series with GM16513 cells [2] (10 µM), 9% in the series with PEX405 cells [4] (1.3 µM) and 33% in the series on PEX405 cells [4] (10 µM).
